Measured values as given in paper PMC8776995 (Frontiers in Chemistry, 2022).
“And” between values parts separate entries of the source, which are not always exact repeats. Equal values may be shown once.

What was measured:
[1] = test system: H460 cells; assay: CCK-8 antiproliferation assay, H460; conditions: for Inhibitory efficacy: H460 cells; for IC50: NCI-H460, 48 h, read-out: IC50 (μM) H460, CCK-8, 48 h, average ± SD of three independent experiments
[2] = test system: H1975 cells; assay: CCK-8 antiproliferation assay, H1975; conditions: for Inhibitory efficacy: H1975 cells; for IC50: NCI-H1975, 48 h, read-out: IC50 (μM) H1975, CCK-8, 48 h, average ± SD of three independent experiments
[3] = molecular target: wild-type EGFR (Homo sapiens, UniProt P00533); assay: EGFR kinase assay (ELISA); conditions: for IC50: IC50 (μM) EGFR, ELISA, 3 μmol/L ATP; for A450: raw ELISA absorbance
[4] = test system: A549 cells; assay: CCK-8 antiproliferation assay, A549; conditions: for Inhibitory efficacy: A549 cells; for Inhibitory efficacy / inhibition at 2 µM / inhibition at 4 µM / inhibition at 8 µM / inhibition at 16 µM / inhibition at 1 µM: given as fraction, Repeat 1-3; for IC50 / inhibition at 2 µM / inhibition at 4 µM / inhibition at 8 µM / inhibition at 16 µM / inhibition at 1 µM: Homo sapiens; for IC50: A549, 48 h, read-out: IC50 (μM) A549, CCK-8, 48 h, average ± SD of three independent experiments; for inhibition at 2 µM / inhibition at 4 µM / inhibition at 8 µM / inhibition at 16 µM / inhibition at 1 µM: A549, read-out: Inhibitory efficacy, A549 cells
[5] = test system: PC-9 cells; assay: CCK-8 antiproliferation assay, PC-9; conditions: for IC50: PC-9, 48 h, read-out: IC50 (μM) PC-9; for inhibition at 4 µM: PC-9, read-out: Inhibitory efficacy, PC-9, 4uM, single repeats (Repeat 1-3), given as fraction; for inhibition at 16 µM: PC-9, read-out: Inhibitory efficacy, PC-9, 16uM, single repeats (Repeat 1-3), given as fraction; for Inhibitory efficacy: single repeats (Repeat 1-3), given as fraction
Experimental: The compounds were dissolved in DMSO to make a 20 μM stock solution and diluted to the concentration of working solutions with complete growth medium before administration.
Cells were seeded in 96-well plates: 3,000–5,000 cells/well in 100 ul. One day after seeding, the test compounds at concentration between 1.0 and 16.0 μ M or 0.1% DMSO (as control) were added to cells in triplicate. 48 h later, CCK-8 was added and incubated the plate for 1–4 h in the incubator. The absorbance at 450 nm were measured using a microplate reader (Bio-Tek).

[6] = 1uM, given as fraction, Repeat 1-3
[7] = 4uM, given as fraction, Repeat 1-3
[8] = Homo sapiens, NCI-H460, read-out: Inhibitory efficacy, H460 cells, 4uM, given as fraction, Repeat 1-3
[9] = 16uM, given as fraction, Repeat 1-3
[10] = Homo sapiens, NCI-H1975, read-out: Inhibitory efficacy, H1975 cells, 16uM, given as fraction, Repeat 1-3
[11] = concentration 0.03 nM, one value per replicate column
[12] = concentration 0.03 nM, one value per replicate column, 3e-05 µM
[13] = concentration 0.3 nM, one value per replicate column
[14] = concentration 0.3 nM, one value per replicate column, 0.0003 µM
[15] = concentration 3 nM, one value per replicate column
[16] = concentration 3 nM, one value per replicate column, 0.003 µM
[17] = concentration 30 nM, one value per replicate column
[18] = concentration 30 nM, one value per replicate column, 0.03 µM
[19] = concentration 300 nM, one value per replicate column
[20] = concentration 300 nM, one value per replicate column, 0.3 µM
[21] = concentration 3000 nM, one value per replicate column
[22] = concentration 3000 nM, one value per replicate column, 3 µM
[23] = concentration 30000 nM, one value per replicate column
[24] = concentration 30000 nM, one value per replicate column, 30 µM
[25] = 8uM, given as fraction, Repeat 1-3
[26] = Homo sapiens, NCI-H460, read-out: Inhibitory efficacy, H460 cells, 8uM, given as fraction, Repeat 1-3
[27] = Homo sapiens, NCI-H460, read-out: Inhibitory efficacy, H460 cells, 16uM, given as fraction, Repeat 1-3
[28] = Homo sapiens, NCI-H1975, read-out: Inhibitory efficacy, H1975 cells, 8uM, given as fraction, Repeat 1-3
[29] = 2uM, given as fraction, Repeat 1-3

Sequence of wild-type EGFR (P00533 25-1210): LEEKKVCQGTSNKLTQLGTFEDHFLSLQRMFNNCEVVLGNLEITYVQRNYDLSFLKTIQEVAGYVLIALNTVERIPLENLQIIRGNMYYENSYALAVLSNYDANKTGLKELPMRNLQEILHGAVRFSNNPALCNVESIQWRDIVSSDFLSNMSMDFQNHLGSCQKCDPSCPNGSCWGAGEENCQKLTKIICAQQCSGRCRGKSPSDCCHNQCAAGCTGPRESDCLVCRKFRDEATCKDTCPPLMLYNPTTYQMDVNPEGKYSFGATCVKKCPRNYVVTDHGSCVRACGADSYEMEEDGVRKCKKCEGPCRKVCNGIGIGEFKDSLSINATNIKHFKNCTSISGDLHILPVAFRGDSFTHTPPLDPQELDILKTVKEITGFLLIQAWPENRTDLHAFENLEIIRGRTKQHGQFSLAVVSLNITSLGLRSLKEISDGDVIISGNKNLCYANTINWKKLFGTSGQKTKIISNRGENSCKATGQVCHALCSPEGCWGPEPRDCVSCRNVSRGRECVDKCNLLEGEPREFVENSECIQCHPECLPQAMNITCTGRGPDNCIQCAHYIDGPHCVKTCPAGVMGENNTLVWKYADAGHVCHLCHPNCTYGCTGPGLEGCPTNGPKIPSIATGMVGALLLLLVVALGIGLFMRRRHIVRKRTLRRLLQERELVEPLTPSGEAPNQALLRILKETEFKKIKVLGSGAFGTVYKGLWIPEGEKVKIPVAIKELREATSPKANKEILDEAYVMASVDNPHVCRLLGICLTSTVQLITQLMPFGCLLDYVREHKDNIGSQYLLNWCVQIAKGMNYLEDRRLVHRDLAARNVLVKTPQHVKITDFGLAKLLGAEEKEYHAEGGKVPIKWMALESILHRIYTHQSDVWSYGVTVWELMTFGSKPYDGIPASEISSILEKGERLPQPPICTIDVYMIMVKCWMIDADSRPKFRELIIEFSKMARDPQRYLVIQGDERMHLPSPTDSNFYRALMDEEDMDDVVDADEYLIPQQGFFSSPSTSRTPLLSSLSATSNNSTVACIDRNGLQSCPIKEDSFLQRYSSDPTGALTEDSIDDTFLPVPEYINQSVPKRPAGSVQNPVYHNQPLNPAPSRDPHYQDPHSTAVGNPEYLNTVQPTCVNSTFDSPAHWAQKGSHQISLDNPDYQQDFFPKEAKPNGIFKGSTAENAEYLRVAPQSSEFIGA

## COCCOc1cc2ncnc(Nc3cccc(-c4cn(CCc5ccccc5)nn4)c3)c2cc1OCCOC [e20, [6,7-Bis-(2-methoxy-ethoxy)-quinazolin-4-yl]-[3-(1-phenethyl-1H-[1,2,3]triazol-4-yl)-phenyl]-amine]
[1]; [6]
  Inhibitory efficacy: 0.1948 and 0.1895
[1]; [7]
  Inhibitory efficacy: 0.1258 and 0.07143
[1]; Homo sapiens
  IC50: > 100 µM
[1]; Homo sapiens, NCI-H460, read-out: Inhibitory efficacy, H460 cells, 1uM, given as fraction, Repeat 1-3
  inhibition at 1 µM: 17.3%
[1]; [8]
  inhibition at 4 µM: 9.76%
[2]; [9]
  Inhibitory efficacy: 0.06216 and 0.05712
[2]; Homo sapiens
  IC50: > 100 µM
[2]; [10]
  inhibition at 16 µM: 8.81%
[3]
  IC50: 0.28 µM
[3]; concentration 0.0001 nM (reference for normalisation), one value per replicate column
  inhibition at 100 fM: 0%
[3]; [11]
  inhibition at 30 pM: 3.3%
[3]; [12]
  Inhibition: 3.99
[3]; [13]
  inhibition at 0.0003 µM: 21.7%
[3]; [14]
  Inhibition: 27.0358
[3]; [15]
  inhibition at 0.003 µM: 38.5%
[3]; [16]
  Inhibition: 33.7948
[3]; [17]
  inhibition at 0.03 µM: 40.5%
[3]; [18]
  Inhibition: 35.1792
[3]; [19]
  inhibition at 0.3 µM: 42.1%
[3]; [20]
  Inhibition: 40.798
[3]; [21]
  inhibition at 3 µM: 55.8%
[3]; [22]
  Inhibition: 51.9544
[3]; [23]
  inhibition at 30 µM: 88.6%
[3]; [24]
  Inhibition: 85.4235
[3]; concentration 0.0001 nM
  A450: 1.605 and 1.533
[3]; concentration 0.03 nM
  A450: 1.562 and 1.484
[3]; concentration 0.3 nM
  A450: 1.323 and 1.201
[3]; concentration 3 nM
  A450: 1.104 and 1.118
[3]; concentration 30 nM
  A450: 1.078 and 1.101
[3]; concentration 300 nM
  A450: 1.057 and 1.032
[3]; concentration 3000 nM
  A450: 0.879 and 0.895
[3]; concentration 30000 nM
  A450: 0.452 and 0.484
other
  melting point: 109 to 112 °C
[4]; 2uM
  Inhibitory efficacy: 0.2224 and 0.1702
  inhibition at 2 µM: 18.8%
[4]; 4uM
  Inhibitory efficacy: 0.2939 and 0.3309
  inhibition at 4 µM: 29.1%
[4]; 8uM
  Inhibitory efficacy: 0.2956 and 0.3275
  inhibition at 8 µM: 22.2%
[4]; 16uM
  Inhibitory efficacy: 0.2156 and 0.1736
  inhibition at 16 µM: 20.2%
[4]
  IC50: > 100 µM
[5]; Homo sapiens
  IC50: > 100 µM

## COCCOc1cc2ncnc(Nc3cccc(-c4cn(-c5ccccc5C(F)(F)F)nn4)c3)c2cc1OCCOC [e16, [6,7-Bis-(2-methoxy-ethoxy)-quinazolin-4-yl]-{3-[1-(2-trifluoromethyl-phenyl)-1H-[1,2,3]triazol-4-yl]-phenyl}-amine]
[1]; [7]
  Inhibitory efficacy: 0.2156 and 0.191
[1]; [25]
  Inhibitory efficacy: 0.4491 and 0.447
[1]; [9]
  Inhibitory efficacy: 0.6066 and 0.6034
[1]; Homo sapiens
  IC50: 10.9 ± 0.39 µM
[1]; [8]
  inhibition at 4 µM: 21.3%
[1]; [26]
  inhibition at 8 µM: 49.5%
[1]; [27]
  inhibition at 16 µM: 57.3%
[2]; [25]
  Inhibitory efficacy: 0.3646 and 0.348
[2]; [9]
  Inhibitory efficacy: 0.506 and 0.5045
[2]; Homo sapiens
  IC50: 15.3 ± 1.55 µM
[2]; [28]
  inhibition at 8 µM: 44%
[2]; [10]
  inhibition at 16 µM: 48%
[3]
  IC50: 32.5 µM
[3]; [12]
  Inhibition: 19.0252 and 4.409
[3]; [14]
  Inhibition: 9.134
[3]; [15]
  inhibition at 0.003 µM: 19.8%
[3]; [16]
  Inhibition: 15.5906
[3]; [17]
  inhibition at 0.03 µM: 23.4%
[3]; [18]
  Inhibition: 15.748
[3]; [19]
  inhibition at 0.3 µM: 27%
[3]; [20]
  Inhibition: 20.1575
[3]; [21]
  inhibition at 3 µM: 29.6%
[3]; [22]
  Inhibition: 27.7165
[3]; [23]
  inhibition at 30 µM: 60.1%
[3]; [24]
  Inhibition: 60
[3]; concentration 0.0001 nM
  A450: 0.901 and 0.865
[3]; concentration 0.03 nM
  A450: 0.78 and 0.837
[3]; concentration 0.3 nM
  A450: 0.775 and 0.807
[3]; concentration 3 nM
  A450: 0.775 and 0.766
[3]; concentration 30 nM
  A450: 0.752 and 0.765
[3]; concentration 300 nM
  A450: 0.729 and 0.737
[3]; concentration 3000 nM
  A450: 0.713 and 0.689
[3]; concentration 30000 nM
  A450: 0.519 and 0.484
other
  melting point: 113 to 116 °C
[4]; 1uM
  Inhibitory efficacy: 0.2305 and 0.3107
  inhibition at 1 µM: 15.9%
[4]; 2uM
  Inhibitory efficacy: 0.2917 and 0.3288
  inhibition at 2 µM: 32.3%
[4]; 4uM
  Inhibitory efficacy: 0.4966 and 0.48
  inhibition at 4 µM: 54.2%
[4]; 8uM
  Inhibitory efficacy: 0.5015 and 0.5395
  inhibition at 8 µM: 54.2%
[4]; 16uM
  Inhibitory efficacy: 0.6478 and 0.6577
  inhibition at 16 µM: 64%
[4]
  IC50: 5.75 ± 0.48 µM
[5]; Homo sapiens
  IC50: 7.71 ± 1.15 µM
  inhibition at 4 µM: 49.1%
  inhibition at 16 µM: 60.8%
[5]; Homo sapiens, PC-9, read-out: Inhibitory efficacy, PC-9, 8uM, single repeats (Repeat 1-3), given as fraction
  inhibition at 8 µM: 56.9%
[5]; PC-9, 4uM, 4 µM
  Inhibitory efficacy: 0.4427 and 0.4497
[5]; PC-9, 8uM, 8 µM
  Inhibitory efficacy: 0.7173 and 0.5415
[5]; PC-9, 16uM, 16 µM
  Inhibitory efficacy: 0.5494 and 0.5275

## COCCOc1cc2ncnc(Nc3cccc(-c4cn(-c5ccc(Br)cc5)nn4)c3)c2cc1OCCOC [e10, [6,7-Bis-(2-methoxy-ethoxy)-quinazolin-4-yl]-{3-[1-(4-bromo-phenyl)-1H-[1,2,3]triazol-4-yl]-phenyl}-amine]
[1]; [29]
  Inhibitory efficacy: 0.07707 and 0.09653
[1]; [25]
  Inhibitory efficacy: 0.3228 and 0.2533
[1]; [9]
  Inhibitory efficacy: 0.4853 and 0.4952
[1]; Homo sapiens
  IC50: 15 ± 2.1 µM
[1]; Homo sapiens, NCI-H460, read-out: Inhibitory efficacy, H460 cells, 2uM, given as fraction, Repeat 1-3
  inhibition at 2 µM: 6.52%
[1]; [26]
  inhibition at 8 µM: 25.3%
[1]; [27]
  inhibition at 16 µM: 60.6%
[2]; [6]
  Inhibitory efficacy: 0.3092 and 0.3364
[2]; [29]
  Inhibitory efficacy: 0.3838 and 0.3364
[2]; [7]
  Inhibitory efficacy: 0.4598 and 0.4892
[2]; [25]
  Inhibitory efficacy: 0.5696 and 0.4885
[2]; [9]
  Inhibitory efficacy: 0.5545 and 0.4835
[2]; Homo sapiens
  IC50: 6.36 ± 4.21 µM
[2]; Homo sapiens, NCI-H1975, read-out: Inhibitory efficacy, H1975 cells, 1uM, given as fraction, Repeat 1-3
  inhibition at 1 µM: 39.4%
[2]; Homo sapiens, NCI-H1975, read-out: Inhibitory efficacy, H1975 cells, 2uM, given as fraction, Repeat 1-3
  inhibition at 2 µM: 33.8%
[2]; Homo sapiens, NCI-H1975, read-out: Inhibitory efficacy, H1975 cells, 4uM, given as fraction, Repeat 1-3
  inhibition at 4 µM: 51.4%
[2]; [28]
  inhibition at 8 µM: 54.1%
[2]; [10]
  inhibition at 16 µM: 67.4%
[3]
  IC50: 2.13 µM
[3]; [11]
  inhibition at 30 pM: 4.76%
[3]; [12]
  Inhibition: 5.109
[3]; [13]
  inhibition at 0.0003 µM: 11.4%
[3]; [14]
  Inhibition: 10.9489
[3]; [15]
  inhibition at 0.003 µM: 15.7%
[3]; [16]
  Inhibition: 10.9489
[3]; [17]
  inhibition at 0.03 µM: 21.1%
[3]; [18]
  Inhibition: 11.3139
[3]; [19]
  inhibition at 0.3 µM: 36.5%
[3]; [20]
  Inhibition: 39.9635
[3]; [21]
  inhibition at 3 µM: 38.4%
[3]; [22]
  Inhibition: 48.1752
[3]; [23]
  inhibition at 30 µM: 78.1%
[3]; [24]
  Inhibition: 77.5547
[3]; concentration 0.0001 nM
  A450: 0.787 and 0.697
[3]; concentration 0.03 nM
  A450: 0.757 and 0.669
[3]; concentration 0.3 nM
  A450: 0.715 and 0.637
[3]; concentration 3 nM
  A450: 0.688 and 0.637
[3]; concentration 30 nM
  A450: 0.654 and 0.635
[3]; concentration 300 nM
  A450: 0.557 and 0.478
[3]; concentration 3000 nM
  A450: 0.545 and 0.433
[3]; concentration 30000 nM
  A450: 0.295 and 0.272
other
  melting point: 105 to 108 °C
[4]; 1uM
  Inhibitory efficacy: 0.3506 and 0.4374
  inhibition at 1 µM: 35.9%
[4]; 2uM
  Inhibitory efficacy: 0.4836 and 0.5124
  inhibition at 2 µM: 51.4%
[4]; 4uM
  Inhibitory efficacy: 0.5136 and 0.5055
  inhibition at 4 µM: 50.2%
[4]; 8uM
  Inhibitory efficacy: 0.5695 and 0.5326
  inhibition at 8 µM: 55.8%
[4]; 16uM
  Inhibitory efficacy: 0.5501 and 0.5711
  inhibition at 16 µM: 59%
[4]
  IC50: 3.77 ± 0.68 µM
[5]; Homo sapiens
  IC50: > 100 µM
  inhibition at 4 µM: 11.7%
  inhibition at 16 µM: 13.3%
[5]; PC-9, 4uM, 4 µM
  Inhibitory efficacy: 0.1333 and 0.0912
[5]; PC-9, 16uM, 16 µM
  Inhibitory efficacy: 0.1218 and 0.1916
